The subject of the assay is Jurkat IL-2 Production. The experiment in a line: Jurkat IL-2 Production Assay. Format: cell-based. The conditions noted are these: Homo sapiens, Jurkat cell (ATCC), 18-20 h incubation, PHA 5 μg/mL with 1% FBS, or PMA/Ionomycin with 30% FBS (table does not say which). Put shortly: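 Jurkat cells were exposed to compound (0.25% DMSO final) for 10 min, then stimulated for 18–20 h at 37 °C. The 1% FBS condition used 5 μg/mL PHA; the high-serum condition (30% FBS) used 50 ng/mL PMA plus 500 ng/mL ionomycin. IC50 was derived from IL-2 production.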
The molecule `CNC(=O)c1ccc(-c2ccc3[nH]c(-c4ccccc4Cl)cc3c2)c(C)c1` [Example 127, 4-[2-(2-Chloro-phenyl)-1H-indol-5-yl]-3,N-dimethyl-benzamide] came in with a concentration for half-maximal inhibition (IC50) of 991 nM. As for `Cc1cc(C(N)=O)ccc1-c1ccc2[nH]c(-c3ccccc3Cl)cc2c1` [Example 128, 4-[2-(2-Chloro-phenyl)-1H-indol-5-yl]-3-methyl-benzamide], the figure is 776 nM. In turn, `Cc1cc(C#N)ccc1-c1ccc2[nH]c(-c3ccccc3Cl)cc2c1` [Example 129, 4-[2-(2-Chloro-phenyl)-1H-indol-5-yl]-3-methyl-benzonitrile] came in with an IC50 of 237 nM. Molecule `Cc1cc(S(=O)(=O)N(C)C)ccc1-c1ccc2[nH]c(-c3ccccc3Cl)cc2c1` [Example 130, 4-[2-(2-Chloro-phenyl)-1H-indol-5-yl]-3,N,N-trimethyl-benzenesulfonamide] had an IC50 of 16 nM. For `COC(=O)c1ccc(-c2ccc3[nH]c(-c4ccc(C(=O)OC)cc4C)cc3c2)c(C)c1` [Example 131, 4-[5-(4-carbomethoxy-2-methyl-phenyl)-1H-indol-2-yl]-3-methyl-benzoic acid methyl ester] the value was 149 nM; for `COc1ccc(-c2cc3cc(-c4ccc(C#N)cc4C)ccc3[nH]2)c(Cl)c1` [Example 132, 4-[2-(2-Chloro-4-methoxy-phenyl)-1H-indol-5-yl]-3-methyl-benzonitrile], 319 nM. As for `Cc1cc(C#N)ccc1-c1ccc2[nH]c(-c3ccc(S(C)(=O)=O)cc3F)cc2c1` [Example 133, 4-[2-(2-Fluoro-4-methanesulfonyl-phenyl)-1H-indol-5-yl]-3-methyl-benzonitrile], the figure is 976 nM; as for `Cc1cc(C#N)ccc1-c1ccc2[nH]c(-c3cccc(C#N)c3F)cc2c1` [Example 134, 4-[2-(2-Fluoro-3-cyano-phenyl)-1H-indol-5-yl]-3-methyl-benzonitrile], 163 nM; as for `COc1cc(F)c(-c2cc3cc(-c4ccc(C#N)cc4C)ccc3[nH]2)c(F)c1` [Example 135, 4-(2-(2,6-difluoro-4-methoxyphenyl)-1H-indol-5-yl)-3-methylbenzonitrile], 283 nM. For the molecule `Cc1cc(C#N)ccc1-c1ccc2[nH]c(-c3ccccc3F)cc2c1` [Example 136, 4-(2-(2-fluorophenyl)-1H-indol-5-yl)-3-methylbenzonitrile], the midpoint of inhibition, the IC50, lay at 370 nM. The molecule `Cc1cc(C#N)ccc1-c1ccc2[nH]c(-c3ccc(C#N)cc3C)cc2c1` [Example 137, 4-(2-(4-Cyano-2-methylphenyl)-1H-indol-5-yl)-3-methylbenzonitrile] returned a 50% inhibitory concentration (IC50) of 132 nM. With `Cc1cc(C#N)ccc1-c1ccc2[nH]c(-c3cc(C#N)ccc3Cl)cc2c1` [Example 138, 4-(2-(2-Chloro-5-cyanophenyl)-1H-indol-5-yl)-3-methylbenzonitrile], the IC50 came to 101 nM. The molecule `COc1ccc(-c2cc3cc(-c4ccc(C#N)cc4C)ccc3[nH]2)c(C)n1` [Example 139, 4-(2-(6-methoxy-2-methylpyridin-3-yl)-1H-indol-5-yl)-3-methylbenzonitrile] registered a 50% inhibitory concentration (IC50) of 162 nM.

`COc1nccc(-c2cc3cc(-c4ccc(C#N)cc4C)ccc3[nH]2)c1Cl` [Example 140, 4-(2-(3-chloro-2-methoxypyridin-4-yl)-1H-indol-5-yl)-3-methylbenzonitrile]: the IC50 came out at 142 nM.

`Cc1cc(C#N)ccc1-c1ccc2[nH]c(-c3ccc(F)cc3F)cc2c1` [Example 141, 4-(2-(2,4-difluorophenyl)-1H-indol-5-yl)-3-methylbenzonitrile] yielded an IC50 of 660 nM. For `COc1ccc(F)c(-c2cc3cc(-c4ccc(C#N)cc4C)ccc3[nH]2)c1F` [Example 142, 4-(2-(2,6-difluoro-3-methoxyphenyl)-1H-indol-5-yl)-3-methylbenzonitrile], the IC50 was 167 nM. On to `COc1cc(C)c(-c2cc3cc(-c4ccc(C#N)cc4C)ccc3[nH]2)cn1` [Example 143, 4-(2-(6-methoxy-4-methylpyridin-3-yl)-1H-indol-5-yl)-3-methylbenzonitrile], for which inhibition was half-maximal at 182 nM (IC50). Molecule `Cc1cc(C#N)ccc1-c1ccc2[nH]c(-c3cnccc3C)cc2c1` [Example 144, methyl-4-(2-(4-methylpyridin-3-yl)-1H-indol-5-yl)benzonitrile] came in with a half-maximal inhibitory concentration (IC50) of 96 nM. `Cc1cc(C#N)ccc1-c1ccc2[nH]c(-c3ccncc3C)cc2c1` [Example 145, methyl-4-(2-(3-methylpyridin-4-yl)-1H-indol-5-yl)benzonitrile] displayed an IC50 of 89 nM. In turn, `Cc1cc(C#N)ccc1-c1ccc2[nH]c(-c3sccc3C)cc2c1` [Example 146, methyl-4-(2-(3-methylthiophen-2-yl)-1H-indol-5-yl)benzonitrile] displayed a half-inhibitory concentration (IC50) of 150 nM. `Cc1cc(C#N)ccc1-c1ccc2[nH]c(-c3cccnc3C)cc2c1` [Example 147, methyl-4-(2-(2-methylpyridin-3-yl)-1H-indol-5-yl)benzonitrile] came in with an IC50 of 311 nM. In the case of `Cc1nc(C)c(-c2cc3cc(-c4ccc(C#N)cc4C)ccc3[nH]2)s1` [Example 148, 4-(2-(2,4-dimethylthiazol-5-yl)-1H-indol-5-yl)-3-methylbenzonitrile], the IC50 is 547 nM.

In turn, `Cc1cc(C#N)ccc1-c1ccc2[nH]c(-c3cscc3C)cc2c1` [Example 149, methyl-4-(2-(4-methylthiophen-3-yl)-1H-indol-5-yl)benzonitrile] gave an IC50 of 286 nM. For `Cc1cc(C#N)ccc1-c1ccc2[nH]c(-c3ccnn3C)cc2c1` [Example 150, methyl-4-(2-(1-methyl-1H-pyrazol-5-yl)-1H-indol-5-yl)benzonitrile] the value was 618 nM. `Cc1cc(C#N)ccc1-c1ccc2[nH]c(-c3c(C)noc3C)cc2c1` [Example 151, 4-(2-(3,5-dimethylisoxazol-4-yl)-1H-indol-5-yl)-3-methylbenzonitrile] yielded a half-inhibitory concentration (IC50) of 158 nM. For `COc1cc(C)c(-c2ccc3[nH]c(-c4cccc(C#N)c4F)cc3c2)cn1` [Example 152, 2-fluoro-3-(5-(6-methoxy-4-methylpyridin-3-yl)-1H-indol-2-yl)benzonitrile] the value was 731 nM. Molecule `COCCOc1cc(F)c(-c2cc3cc(-c4ccc(C#N)cc4C)ccc3[nH]2)c(F)c1` [Example 153, 4-(2-(2,6-difluoro-4-(2-methoxyethoxy)phenyl)-1H-indol-5-yl)-3-methylbenzonitrile] showed a concentration for half-maximal inhibition (IC50) of 331 nM.

With `Cc1cc(C#N)ccc1-c1ccc2[nH]c(-c3c(F)cc(OCCO)cc3F)cc2c1` [Example 154, 4-(2-(2,6-difluoro-4-(2-hydroxyethoxy)phenyl)-1H-indol-5-yl)-3-methylbenzonitrile], the 50% inhibitory concentration (IC50) is 586 nM. Molecule `Cc1cc(C#N)ccc1-c1ccc2[nH]c(-c3c(F)cc(OCCCC#N)cc3F)cc2c1` [Example 155, 4-(2-(4-(3-cyanopropoxy)-2,6-difluorophenyl)-1H-indol-5-yl)-3-methylbenzonitrile] registered an IC50 of 87 nM. `Cc1cc(C#N)ccc1-c1ccc2[nH]c(-c3c(F)cc(OCCCO)cc3F)cc2c1` [Example 156, 4-(2-(2,6-difluoro-4-(3-hydroxypropoxy)phenyl)-1H-indol-5-yl)-3-methylbenzonitrile] came in with an IC50 of 130 nM. `Cc1cc(C#N)ccc1-c1ccc2[nH]c(-c3c(F)cc(O)cc3F)cc2c1` [Example 157, 4-(2-(2,6-difluoro-4-hydroxyphenyl)-1H-indol-5-yl)-3-methylbenzonitrile] registered an IC50 of 222 nM.

(Values after US20110071150A1 (priority 2009, published 2011).)
